Experimental data published in US20150087627A1, “COMBINATION OF KINASE INHIBITORS AND USES THEREOF” (Intellikine LLC, priority 2011, published 2015).
pIC50: −log10 of the molar value.

Tests used:
Format in all cases: biochemical
[1] = molecular target: T1, PI3K γ (p110γ) (Homo sapiens, UniProt P48736); assay: PI 3-Kinase (human) HTRF assay, PI3K γ; settings: read-out: PI3K γ IC50
T1 construct: purchased Upstate / Millipore Corporation

[2] = molecular target: T2, PI3K β (p110β/p85α) (Homo sapiens, UniProt P42338); assay: PI 3-Kinase (human) HTRF assay, PI3K β; settings: read-out: PI3K β IC50
T2 construct: purchased Upstate / Millipore Corporation
T2 sequence (P42338 whole entry): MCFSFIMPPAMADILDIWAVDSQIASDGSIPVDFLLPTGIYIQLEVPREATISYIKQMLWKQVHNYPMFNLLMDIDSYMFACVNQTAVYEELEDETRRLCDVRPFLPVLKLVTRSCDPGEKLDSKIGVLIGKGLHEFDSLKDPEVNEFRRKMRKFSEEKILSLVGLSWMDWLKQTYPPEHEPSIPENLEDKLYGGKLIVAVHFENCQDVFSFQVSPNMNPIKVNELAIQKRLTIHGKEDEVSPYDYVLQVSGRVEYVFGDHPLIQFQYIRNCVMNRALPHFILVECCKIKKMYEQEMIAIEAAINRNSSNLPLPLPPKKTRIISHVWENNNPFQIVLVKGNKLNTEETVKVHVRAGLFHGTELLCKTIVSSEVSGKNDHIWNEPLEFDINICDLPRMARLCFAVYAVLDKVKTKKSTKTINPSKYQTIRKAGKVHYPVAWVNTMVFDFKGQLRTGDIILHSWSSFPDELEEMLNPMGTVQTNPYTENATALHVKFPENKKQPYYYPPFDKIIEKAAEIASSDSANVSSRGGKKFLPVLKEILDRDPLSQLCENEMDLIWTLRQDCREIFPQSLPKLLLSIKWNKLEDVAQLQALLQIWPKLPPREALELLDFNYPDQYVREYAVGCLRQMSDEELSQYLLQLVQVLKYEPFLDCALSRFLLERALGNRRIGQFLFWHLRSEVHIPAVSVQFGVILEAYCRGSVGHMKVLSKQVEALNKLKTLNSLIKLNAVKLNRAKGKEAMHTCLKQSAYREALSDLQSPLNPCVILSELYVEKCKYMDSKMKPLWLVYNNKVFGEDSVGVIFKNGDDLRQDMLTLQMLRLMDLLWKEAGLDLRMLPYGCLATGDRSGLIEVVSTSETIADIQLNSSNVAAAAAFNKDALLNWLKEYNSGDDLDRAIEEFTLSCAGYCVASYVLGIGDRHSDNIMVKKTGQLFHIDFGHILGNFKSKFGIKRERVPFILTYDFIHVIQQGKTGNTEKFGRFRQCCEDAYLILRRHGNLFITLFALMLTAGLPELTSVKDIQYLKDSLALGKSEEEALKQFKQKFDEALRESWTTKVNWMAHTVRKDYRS
T2 sequence (P27986 whole entry partner): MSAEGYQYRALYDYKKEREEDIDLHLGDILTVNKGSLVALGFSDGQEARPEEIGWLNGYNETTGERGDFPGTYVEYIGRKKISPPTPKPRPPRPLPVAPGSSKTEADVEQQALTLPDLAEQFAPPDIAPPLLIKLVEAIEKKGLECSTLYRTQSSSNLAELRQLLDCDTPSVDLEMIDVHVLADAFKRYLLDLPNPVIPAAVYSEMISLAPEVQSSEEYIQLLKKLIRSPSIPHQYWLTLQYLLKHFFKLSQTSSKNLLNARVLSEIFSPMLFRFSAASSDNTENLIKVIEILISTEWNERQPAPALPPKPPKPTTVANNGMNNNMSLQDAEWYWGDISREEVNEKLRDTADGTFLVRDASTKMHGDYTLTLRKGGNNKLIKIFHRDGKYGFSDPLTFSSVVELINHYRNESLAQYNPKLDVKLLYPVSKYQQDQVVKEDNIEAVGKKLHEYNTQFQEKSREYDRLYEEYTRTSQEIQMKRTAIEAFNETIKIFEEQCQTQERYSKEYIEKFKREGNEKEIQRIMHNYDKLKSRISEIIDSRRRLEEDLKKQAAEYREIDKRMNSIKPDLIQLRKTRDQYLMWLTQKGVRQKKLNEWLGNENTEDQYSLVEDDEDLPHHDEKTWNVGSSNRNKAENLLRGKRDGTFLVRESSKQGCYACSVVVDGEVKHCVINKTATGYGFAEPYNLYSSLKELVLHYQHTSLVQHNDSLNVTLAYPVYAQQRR

[3] = molecular target: T3, PI3K δ (Homo sapiens, UniProt O00329); assay: PI 3-Kinase (human) HTRF assay, PI3K δ; settings: read-out: PI3K δ IC50
T3 construct: purchased Upstate / Millipore Corporation
T3 sequence (O00329 whole entry): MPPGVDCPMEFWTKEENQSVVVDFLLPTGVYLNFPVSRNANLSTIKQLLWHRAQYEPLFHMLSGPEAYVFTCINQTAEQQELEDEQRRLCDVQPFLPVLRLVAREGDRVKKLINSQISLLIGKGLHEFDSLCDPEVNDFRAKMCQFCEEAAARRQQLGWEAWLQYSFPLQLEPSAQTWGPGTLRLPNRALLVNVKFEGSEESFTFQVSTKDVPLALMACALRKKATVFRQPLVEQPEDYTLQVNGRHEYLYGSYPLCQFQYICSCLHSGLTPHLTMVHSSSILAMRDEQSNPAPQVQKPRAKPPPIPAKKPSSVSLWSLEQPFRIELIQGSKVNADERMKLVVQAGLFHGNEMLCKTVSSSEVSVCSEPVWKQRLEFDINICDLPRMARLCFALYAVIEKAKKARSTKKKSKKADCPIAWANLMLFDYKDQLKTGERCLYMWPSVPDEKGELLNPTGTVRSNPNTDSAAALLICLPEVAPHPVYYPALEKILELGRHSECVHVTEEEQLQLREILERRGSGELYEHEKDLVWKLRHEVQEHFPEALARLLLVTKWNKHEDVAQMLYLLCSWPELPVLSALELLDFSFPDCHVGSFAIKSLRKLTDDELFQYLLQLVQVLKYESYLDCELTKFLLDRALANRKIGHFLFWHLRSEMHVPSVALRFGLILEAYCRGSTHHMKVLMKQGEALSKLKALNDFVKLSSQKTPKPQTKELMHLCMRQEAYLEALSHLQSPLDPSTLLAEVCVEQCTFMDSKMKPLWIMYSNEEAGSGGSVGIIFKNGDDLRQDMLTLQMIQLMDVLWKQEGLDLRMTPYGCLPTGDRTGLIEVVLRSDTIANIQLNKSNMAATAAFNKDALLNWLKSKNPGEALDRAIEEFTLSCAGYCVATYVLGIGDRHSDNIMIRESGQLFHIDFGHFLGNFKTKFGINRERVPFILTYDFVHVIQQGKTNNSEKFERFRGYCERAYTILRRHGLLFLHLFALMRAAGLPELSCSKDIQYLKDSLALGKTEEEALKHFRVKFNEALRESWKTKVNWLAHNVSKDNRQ
T3 sequence (P27986 whole entry partner): as the sequence (P27986 whole entry partner) above

[4] = molecular target: T4, PI3K α (p110α/p85α) (Homo sapiens, UniProt P42336); assay: PI 3-Kinase (human) HTRF assay, PI3K α; settings: read-out: PI3K α IC50
T4 construct: purchased Upstate / Millipore Corporation
T4 sequence (P42336 whole entry): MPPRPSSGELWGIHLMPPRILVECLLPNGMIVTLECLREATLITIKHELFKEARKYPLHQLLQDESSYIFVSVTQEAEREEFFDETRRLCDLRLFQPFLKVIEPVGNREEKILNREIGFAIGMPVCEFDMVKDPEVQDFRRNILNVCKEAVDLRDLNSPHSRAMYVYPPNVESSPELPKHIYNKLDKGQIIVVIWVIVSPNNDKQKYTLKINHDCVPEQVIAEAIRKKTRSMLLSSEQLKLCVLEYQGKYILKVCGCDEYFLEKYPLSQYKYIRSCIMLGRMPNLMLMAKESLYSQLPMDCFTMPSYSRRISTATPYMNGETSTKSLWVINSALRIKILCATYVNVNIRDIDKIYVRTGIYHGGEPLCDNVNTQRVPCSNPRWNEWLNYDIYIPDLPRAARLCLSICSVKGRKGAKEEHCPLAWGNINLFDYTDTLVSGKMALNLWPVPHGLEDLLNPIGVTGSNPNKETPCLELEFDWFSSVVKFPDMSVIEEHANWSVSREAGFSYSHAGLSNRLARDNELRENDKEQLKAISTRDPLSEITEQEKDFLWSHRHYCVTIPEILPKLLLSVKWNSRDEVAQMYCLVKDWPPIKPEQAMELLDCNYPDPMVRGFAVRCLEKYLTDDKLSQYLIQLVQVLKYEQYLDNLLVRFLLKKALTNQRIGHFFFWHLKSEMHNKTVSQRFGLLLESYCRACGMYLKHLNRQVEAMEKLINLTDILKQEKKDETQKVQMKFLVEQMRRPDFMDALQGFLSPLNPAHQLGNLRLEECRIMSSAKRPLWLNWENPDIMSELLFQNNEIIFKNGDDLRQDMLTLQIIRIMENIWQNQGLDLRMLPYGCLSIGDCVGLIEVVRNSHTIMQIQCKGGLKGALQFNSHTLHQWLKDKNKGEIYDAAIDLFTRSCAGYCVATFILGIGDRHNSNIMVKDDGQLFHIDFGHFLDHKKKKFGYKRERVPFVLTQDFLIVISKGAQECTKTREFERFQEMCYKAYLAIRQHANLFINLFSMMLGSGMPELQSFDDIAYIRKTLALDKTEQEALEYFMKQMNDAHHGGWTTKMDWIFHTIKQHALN
T4 sequence (P27986 whole entry partner): as the sequence (P27986 whole entry partner) above

T1 sequence (P48736 whole entry): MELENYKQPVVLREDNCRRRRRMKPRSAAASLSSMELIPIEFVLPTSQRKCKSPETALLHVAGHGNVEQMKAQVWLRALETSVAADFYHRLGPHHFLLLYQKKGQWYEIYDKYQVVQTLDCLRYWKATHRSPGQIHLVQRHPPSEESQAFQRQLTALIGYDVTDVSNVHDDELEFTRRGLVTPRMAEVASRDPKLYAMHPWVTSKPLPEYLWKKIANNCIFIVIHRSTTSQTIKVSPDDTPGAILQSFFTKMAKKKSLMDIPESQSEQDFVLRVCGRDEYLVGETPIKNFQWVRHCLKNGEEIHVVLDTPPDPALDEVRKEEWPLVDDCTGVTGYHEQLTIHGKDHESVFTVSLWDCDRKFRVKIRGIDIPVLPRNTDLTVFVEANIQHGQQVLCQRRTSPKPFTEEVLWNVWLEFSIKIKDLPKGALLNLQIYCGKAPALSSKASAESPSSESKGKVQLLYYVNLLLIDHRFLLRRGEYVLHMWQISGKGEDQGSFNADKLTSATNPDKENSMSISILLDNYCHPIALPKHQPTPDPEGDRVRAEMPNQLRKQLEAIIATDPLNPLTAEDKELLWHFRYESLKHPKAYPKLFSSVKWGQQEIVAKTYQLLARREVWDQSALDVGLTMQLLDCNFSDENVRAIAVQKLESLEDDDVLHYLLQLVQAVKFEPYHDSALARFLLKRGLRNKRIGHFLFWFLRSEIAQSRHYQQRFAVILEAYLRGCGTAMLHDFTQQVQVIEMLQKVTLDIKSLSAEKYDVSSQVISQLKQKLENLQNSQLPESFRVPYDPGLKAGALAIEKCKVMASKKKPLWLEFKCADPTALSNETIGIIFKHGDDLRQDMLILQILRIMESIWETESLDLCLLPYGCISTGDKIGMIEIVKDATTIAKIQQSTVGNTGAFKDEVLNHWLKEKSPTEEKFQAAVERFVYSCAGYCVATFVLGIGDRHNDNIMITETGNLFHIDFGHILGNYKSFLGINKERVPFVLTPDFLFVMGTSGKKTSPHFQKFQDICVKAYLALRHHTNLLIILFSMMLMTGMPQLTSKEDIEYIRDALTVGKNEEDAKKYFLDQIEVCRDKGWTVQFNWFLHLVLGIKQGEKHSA

Row | SMILES | pIC50 [1] | pIC50 [2] | pIC50 [3] | pIC50 [4]
1 | CC(=O)Nc1nc2cc(-c3ccc4nc(N)oc4c3)ccc2s1 [Compound 251] | > 7.00 | > 7.00 | > 7.00 | > 7.00
2 | Cc1cc(-c2ccc3oc(N)nc3c2)cc2c(C(=O)N3CCCC3)cnn12 [Compound 368] | > 6.00 | > 5.00 | > 6.00 | > 7.00
3 | Nc1nc2cc(-c3cc(F)c4oc(N)nc4c3)ccc2o1 [Compound 432] | > 7.00 | > 6.00 | < 5.00 | > 5.00
4 | C[C@H]1CN(c2cnc3ccc(-c4ccc5nc(N)oc5c4)cc3n2)CCN1 [Compound 309] | > 5.00 | > 6.00 | < 5.00 | > 6.00
5 | CC(C)(C)N1CCN(C(=O)c2cnc3ccc(-c4ccc5oc(N)nc5c4)cn23)CC1 [Compound 191] | > 5.00 | > 5.00 | > 5.00 | > 7.00
6 | Nc1nc2ccc(-c3ccc4ncc(C(=O)N5CCOCC5)n4c3)cc2[nH]1 [Compound 544] | < 5.00 | < 5.00 | < 5.00 | > 6.00
7 | Nc1nc2cc(-c3ccn4ncc(-c5ccncc5)c4c3)ccc2o1 [Compound 356] | > 7.00 | > 7.00 | > 7.00 | > 7.00
8 | Cc1c(-c2ccc3oc(N)nc3c2)ccc2ncc(N3CC(N4CCOCC4)C3)nc12 [Compound 383] | < 5.00 | < 5.00 | < 5.00 | > 6.00
9 | Nc1nc2cc(-c3ccc4ncc(C(=O)NC5CCOCC5)n4c3)ccc2o1 [Compound 83] | > 7.00 | > 5.00 | > 7.00 | > 7.00
10 | Cc1cc(-c2ccc3oc(N)nc3c2)cc2c(-c3ccncc3)cnn12 [Compound 397] | > 7.00 | > 6.00 | > 6.00 | > 7.00
11 | C[C@H]1CN(C2CN(C(=O)c3cnc4ccc(-c5ccc6oc(N)nc6c5)cn34)C2)CCN1 [Compound 510] | > 5.00 | > 5.00 | > 6.00 | > 7.00
12 | C[C@@H]1CN(C(=O)c2cnc3ccc(-c4ccc5oc(N)nc5c4)cn23)C[C@H](C)O1 [Compound 106] | > 5.00 | < 5.00 | < 5.00 | > 5.00
13 | O=C(c1cnc2ccc(-c3cncc4[nH]ncc34)cn12)N1CCOCC1 [Compound 506] | < 5.00 | < 5.00 | < 5.00 | > 7.00
14 | Nc1nsc2ccc(-c3ccc4nccc(-c5ccncc5)c4c3)cc12 [Compound 12] | < 5.00 | < 5.00 | < 5.00 | < 5.00
15 | CNc1nsc2cc(-c3ccc4ncc(C(=O)N5CCOCC5)n4c3)ccc12 [Compound 497] | < 5.00 | < 5.00 | < 5.00 | < 5.00
16 | CS(=O)(=O)N1CCC(Nc2ncnc3ccc(-c4ccc5oc(N)nc5c4)cc23)CC1 [Compound 87] | > 7.00 | > 6.00 | > 7.00 | > 7.00
17 | Nc1nc2cc(-c3ccc4ncc(N5CC[C@H](N6CCOCC6)C5)nc4c3)ccc2o1 [Compound 375] | > 6.00 | > 5.00 | > 6.00 | > 6.00
18 | O=C(c1cnc2ccc(-c3ccc4oc(NC5CC5)nc4c3)cn12)N1CCOCC1 [Compound 409] | < 5.00 | < 5.00 | < 5.00 | > 5.00
19 | O=C(c1cnc2ccc(-c3cncc(NS(=O)(=O)c4ccc(F)cc4F)c3)cn12)N1CCOCC1 [Compound 425] | > 7.00 | < 5.00 | > 6.00 | > 7.00
20 | CC(=O)Nc1nc2ccc(-c3ccc4nc(N)oc4c3)cc2s1 [Compound 242] | > 7.00 | > 7.00 | < 5.00 | > 7.00

Row | SMILES | pIC50 [1] | pIC50 [2] | pIC50 [3] | pIC50 [4]
21 | Nc1nc2cc(-c3ccc4ncc(N5CC(C(=O)NC6CC6)C5)nc4c3)ccc2o1 [Compound 215] | > 6.00 | > 6.00 | > 5.00 | > 7.00
22 | CN1CCN(C(=O)c2cnc3ccc(-c4ccc5oc(N)nc5c4)nn23)CC1 [Compound 104] | > 5.00 | < 5.00 | < 5.00 | > 5.00
23 | COCCn1cnc2ccc(-c3ccc4oc(N)nc4c3)cc2c1=O [Compound 272] | > 5.00 | > 5.00 | < 5.00 | > 6.00
24 | Nc1nc2cc(-c3ccc4ncc(NC5CCOCC5)nc4c3)ccc2o1 [Compound 96] | > 7.00 | > 5.00 | > 6.00 | > 7.00
25 | Nc1cn2cc(-c3ccc4oc(N)nc4c3)ccc2n1 [Compound 245] | > 6.00 | > 5.00 | < 5.00 | > 6.00
26 | Nc1nc2cc(-c3ccc4ncc(C(=O)N5CC(F)(F)C5)n4c3)ccc2o1 [Compound 473] | > 7.00 | < 5.00 | < 5.00 | > 7.00
27 | CN1CCC(Nc2ncnc3ccc(-c4ccc5oc(N)nc5c4)nc23)CC1 [Compound 212] | > 6.00 | > 6.00 | > 6.00 | > 7.00
28 | COc1ncc(-c2ccc3ncn(C4CCN(C(C)C)CC4)c(=O)c3c2)cc1NS(=O)(=O)c1ccccc1 [Compound 522] | > 7.00 | > 7.00 | > 7.00 | > 7.00
29 | CCN(CC)CCCNc1cnc2ccc(-c3ccc4oc(N)nc4c3)cc2n1 [Compound 220] | > 6.00 | > 6.00 | > 7.00 | > 7.00
30 | Nc1nc2cc(-c3ccc4ncn(CCN5CCOCC5)c(=O)c4c3)ccc2o1 [Compound 289] | > 6.00 | > 5.00 | < 5.00 | > 6.00
31 | Nc1nc2cc(-c3ccc4ncc(C(=O)N(CCO)CCO)n4c3)ccc2o1 [Compound 316] | > 5.00 | > 5.00 | < 5.00 | > 6.00
32 | CN1CCN(S(=O)(=O)c2cnc3ccc(-c4ccc5oc(N)nc5c4)cn23)CC1 [Compound 110] | < 5.00 | < 5.00 | < 5.00 | < 5.00
33 | CN1CCN(c2ncnc3ccc(-c4ccc5oc(N)nc5c4)cc23)CC1 [Compound 23] | > 7.00 | > 6.00 | > 5.00 | > 7.00
34 | C[C@H]1CN(c2nc3cc(-c4ccc5oc(N)nc5c4)ccc3nc2N)CCN1 [Compound 403] | < 5.00 | < 5.00 | < 5.00 | > 5.00
35 | CS(=O)(=O)CCN1CCN(c2cnc3ccc(-c4ccc5oc(N)nc5c4)cc3n2)CC1 [Compound 90] | > 6.00 | > 6.00 | > 5.00 | > 7.00
36 | CC(=O)N1CCN(c2cnc3ccc(-c4ccc5oc(N)nc5c4)cc3n2)CC1 [Compound 85] | > 7.00 | > 7.00 | > 7.00 | > 7.00
37 | Nc1nc2cc(-c3ccc4ncc(C(=O)NCCOCC(=O)O)n4c3)ccc2o1 [Compound 551] | > 7.00 | > 6.00 | > 5.00 | > 7.00
38 | Nc1nc2ccc(-c3ccc4ncc(N5CCOCC5)nc4c3)cc2o1 [Compound 117] | > 6.00 | > 6.00 | < 5.00 | > 7.00
39 | Nc1nc2ccc(-c3ccc4ncc(C(=O)N5CCOCC5)n4c3)cc2s1 [Compound 125] | > 6.00 | < 5.00 | > 5.00 | > 6.00
40 | CN1CCN(c2nc3cc(-c4ccc5oc(N)nc5c4)ccc3c(=O)n2C)CC1 [Compound 79] | < 5.00 | < 5.00 | < 5.00 | > 5.00
